Laboratory results reported in ChEMBL document CHEMBL1821689, “1,6-Disubstituted indole derivatives as selective human neuronal nitric oxide synthase inhibitors” (Bioorg Med Chem Lett, 2011).
Calls of active or inactive are those of the source. The rule behind the calls is not given here.

Assays:
Nitric oxide synthase 3 = molecular target: T1, Nitric oxide synthase 3 (Homo sapiens, UniProt P29474); assay: Inhibition of recombinant human eNOS expressed in baculovirus infected insect Sf9 cells assessed as conversion of [3H]-L-arginine into [3H]-L-citrulline by radiometric method
T1 sequence (P29474 whole entry): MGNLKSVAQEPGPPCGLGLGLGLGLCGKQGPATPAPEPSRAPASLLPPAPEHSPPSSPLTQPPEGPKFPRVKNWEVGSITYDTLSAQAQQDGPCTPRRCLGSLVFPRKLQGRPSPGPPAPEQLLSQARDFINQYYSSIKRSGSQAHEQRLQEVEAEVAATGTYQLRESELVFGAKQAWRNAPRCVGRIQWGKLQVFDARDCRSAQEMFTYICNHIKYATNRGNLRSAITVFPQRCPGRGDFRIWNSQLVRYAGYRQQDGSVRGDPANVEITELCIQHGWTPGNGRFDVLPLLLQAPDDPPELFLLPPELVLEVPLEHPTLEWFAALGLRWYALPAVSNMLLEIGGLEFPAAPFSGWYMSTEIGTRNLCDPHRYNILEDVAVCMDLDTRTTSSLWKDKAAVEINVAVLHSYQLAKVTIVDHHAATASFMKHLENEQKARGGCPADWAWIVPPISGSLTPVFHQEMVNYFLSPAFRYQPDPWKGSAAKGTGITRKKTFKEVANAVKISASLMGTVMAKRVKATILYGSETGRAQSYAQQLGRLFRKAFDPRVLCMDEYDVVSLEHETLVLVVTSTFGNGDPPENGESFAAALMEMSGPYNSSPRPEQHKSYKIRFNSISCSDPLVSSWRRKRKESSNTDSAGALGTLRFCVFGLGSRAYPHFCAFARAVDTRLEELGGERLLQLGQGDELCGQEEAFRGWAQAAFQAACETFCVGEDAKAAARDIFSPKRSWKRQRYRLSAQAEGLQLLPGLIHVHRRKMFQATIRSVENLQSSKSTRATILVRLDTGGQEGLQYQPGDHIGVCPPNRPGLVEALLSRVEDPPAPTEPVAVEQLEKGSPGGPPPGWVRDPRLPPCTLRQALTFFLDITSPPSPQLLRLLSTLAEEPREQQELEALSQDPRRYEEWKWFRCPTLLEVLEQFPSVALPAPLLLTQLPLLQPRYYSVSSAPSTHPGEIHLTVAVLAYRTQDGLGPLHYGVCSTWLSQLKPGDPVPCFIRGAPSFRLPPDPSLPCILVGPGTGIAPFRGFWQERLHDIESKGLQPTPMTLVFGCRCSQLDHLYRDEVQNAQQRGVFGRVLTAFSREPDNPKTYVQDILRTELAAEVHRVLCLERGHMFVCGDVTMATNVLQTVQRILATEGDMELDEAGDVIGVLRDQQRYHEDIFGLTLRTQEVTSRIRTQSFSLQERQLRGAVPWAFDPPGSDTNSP

Homo sapiens = organism: Homo sapiens; assay: Selectivity ratio of IC50 for recombinant human eNOS to IC50 for recombinant human nNOS
[1] = molecular target: Nitric oxide sythases; iNOS & nNOS (Homo sapiens) (UniProt P29475+P35228); assay: Selectivity ratio of IC50 for recombinant human iNOS to IC50 for recombinant human nNOS
Sequence of Nitric oxide sythases; iNOS & nNOS (Homo sapiens) (P29475 whole entry, looked up): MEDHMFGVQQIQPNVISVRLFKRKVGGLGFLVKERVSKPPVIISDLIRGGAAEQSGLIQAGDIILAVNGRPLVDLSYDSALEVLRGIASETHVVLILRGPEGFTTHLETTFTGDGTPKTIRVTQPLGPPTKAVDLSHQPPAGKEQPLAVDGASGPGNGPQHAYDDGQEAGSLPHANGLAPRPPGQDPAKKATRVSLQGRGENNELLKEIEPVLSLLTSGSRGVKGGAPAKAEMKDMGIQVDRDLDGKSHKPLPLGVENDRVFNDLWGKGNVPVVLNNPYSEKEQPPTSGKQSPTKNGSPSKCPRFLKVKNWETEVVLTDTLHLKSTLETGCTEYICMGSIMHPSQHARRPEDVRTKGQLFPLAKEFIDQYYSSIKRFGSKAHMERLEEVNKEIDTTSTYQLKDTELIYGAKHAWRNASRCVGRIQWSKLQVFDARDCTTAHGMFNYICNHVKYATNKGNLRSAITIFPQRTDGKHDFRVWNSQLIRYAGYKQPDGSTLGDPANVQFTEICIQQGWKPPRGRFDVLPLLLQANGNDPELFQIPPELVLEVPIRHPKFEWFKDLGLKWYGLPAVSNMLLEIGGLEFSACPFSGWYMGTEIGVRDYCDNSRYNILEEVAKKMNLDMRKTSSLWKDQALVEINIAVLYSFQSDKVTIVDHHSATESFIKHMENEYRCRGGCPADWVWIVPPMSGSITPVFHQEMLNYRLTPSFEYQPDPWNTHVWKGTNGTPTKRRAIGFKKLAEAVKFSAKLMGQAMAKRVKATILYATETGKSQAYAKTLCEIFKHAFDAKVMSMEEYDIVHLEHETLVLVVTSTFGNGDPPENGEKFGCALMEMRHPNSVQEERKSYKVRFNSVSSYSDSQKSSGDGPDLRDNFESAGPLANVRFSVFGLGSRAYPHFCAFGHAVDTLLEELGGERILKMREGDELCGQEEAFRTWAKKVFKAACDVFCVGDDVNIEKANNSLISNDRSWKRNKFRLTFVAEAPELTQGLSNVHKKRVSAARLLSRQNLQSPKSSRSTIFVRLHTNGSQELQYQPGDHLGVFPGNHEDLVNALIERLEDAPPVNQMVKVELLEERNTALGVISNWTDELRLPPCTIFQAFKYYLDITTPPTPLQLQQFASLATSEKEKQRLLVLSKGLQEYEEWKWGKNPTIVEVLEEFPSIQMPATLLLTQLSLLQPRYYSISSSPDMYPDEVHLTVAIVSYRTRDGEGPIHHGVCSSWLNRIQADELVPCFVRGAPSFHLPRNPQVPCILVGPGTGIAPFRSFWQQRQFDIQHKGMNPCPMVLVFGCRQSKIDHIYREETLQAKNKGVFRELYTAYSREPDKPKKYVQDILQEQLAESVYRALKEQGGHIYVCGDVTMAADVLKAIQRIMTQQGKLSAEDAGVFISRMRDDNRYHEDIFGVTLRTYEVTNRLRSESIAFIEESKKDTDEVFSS
Sequence of Nitric oxide sythases; iNOS & nNOS (Homo sapiens) (P35228 whole entry, looked up): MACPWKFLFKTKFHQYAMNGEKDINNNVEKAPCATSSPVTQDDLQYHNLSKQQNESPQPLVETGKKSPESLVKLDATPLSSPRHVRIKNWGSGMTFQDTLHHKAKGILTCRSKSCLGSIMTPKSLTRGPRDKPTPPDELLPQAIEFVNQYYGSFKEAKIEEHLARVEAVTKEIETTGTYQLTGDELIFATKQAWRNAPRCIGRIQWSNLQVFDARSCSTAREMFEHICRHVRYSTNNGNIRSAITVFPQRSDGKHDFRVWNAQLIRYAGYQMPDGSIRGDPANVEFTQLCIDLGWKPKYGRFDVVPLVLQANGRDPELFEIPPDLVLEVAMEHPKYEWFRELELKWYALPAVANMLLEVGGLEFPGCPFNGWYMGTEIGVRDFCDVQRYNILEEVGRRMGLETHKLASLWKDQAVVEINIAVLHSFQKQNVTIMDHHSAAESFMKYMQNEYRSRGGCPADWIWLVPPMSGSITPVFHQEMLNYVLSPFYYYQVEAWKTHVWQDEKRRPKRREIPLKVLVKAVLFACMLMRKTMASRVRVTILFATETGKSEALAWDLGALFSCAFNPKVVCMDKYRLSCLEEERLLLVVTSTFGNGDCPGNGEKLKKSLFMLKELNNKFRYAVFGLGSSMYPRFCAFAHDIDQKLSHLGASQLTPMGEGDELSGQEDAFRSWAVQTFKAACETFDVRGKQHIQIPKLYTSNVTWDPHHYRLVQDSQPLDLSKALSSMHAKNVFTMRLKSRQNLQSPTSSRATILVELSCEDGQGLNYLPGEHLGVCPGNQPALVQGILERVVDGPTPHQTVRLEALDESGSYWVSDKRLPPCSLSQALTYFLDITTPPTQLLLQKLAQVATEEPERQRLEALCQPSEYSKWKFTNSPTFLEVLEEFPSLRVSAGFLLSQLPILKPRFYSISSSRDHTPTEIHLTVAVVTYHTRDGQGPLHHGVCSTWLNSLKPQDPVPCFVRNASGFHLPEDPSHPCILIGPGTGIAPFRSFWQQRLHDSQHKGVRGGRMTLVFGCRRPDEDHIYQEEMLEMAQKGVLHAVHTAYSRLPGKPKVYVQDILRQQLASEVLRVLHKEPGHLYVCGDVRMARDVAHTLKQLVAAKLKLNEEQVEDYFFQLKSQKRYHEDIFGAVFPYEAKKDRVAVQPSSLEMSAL

[2] = molecular target: Nitric oxide synthase, inducible (Homo sapiens, UniProt P35228); assay: Inhibition of recombinant human iNOS expressed in baculovirus infected insect Sf9 cells assessed as conversion of [3H]-L-arginine into [3H]-L-citrulline by radiometric method
Sequence of Nitric oxide synthase, inducible (P35228 whole entry): as the sequence (P35228 whole entry, looked up) above

Nitric oxide synthase 1 = Nitric oxide synthase 1 (Homo sapiens, UniProt P29475); assay: Inhibition of recombinant human nNOS expressed in baculovirus infected insect Sf9 cells assessed as conversion of [3H]-L-arginine into [3H]-L-citrulline by radiometric method
Sequence of Nitric oxide synthase 1 (P29475 whole entry): as the sequence (P29475 whole entry, looked up) above

Rattus norvegicus [3] = assay: Antiallodynic activity in Sprague-Dawley rat model of migraine pain assessed as attenuation of cutaneous allodynia in the hind-paws at 30 mg/kg, po administered 15 mins prior to application of inflammatory soup measured between 2 to 6 hrs; type: functional, organism-based; design: dose 30 mg/kg
Rattus norvegicus [4] = assay: Antiallodynic activity in Sprague-Dawley rat model of migraine pain assessed as attenuation of cutaneous allodynia in the hind-paws at 30 mg/kg, po administered 15 mins prior to application of inflammatory soup measured at 4 hrs; type: functional, organism-based; design: dose 30 mg/kg

Row | Compound | IC50 (Nitric oxide synthase 3) | Ratio IC50 (Homo sapiens) | Ratio IC50 [1] | IC50 [2] | also measured
1 | CNCCCn1ccc2ccc(NC(=N)c3cccs3)cc21 | 11.8 µM | – | – | – | –
2 | N/C(=N\c1ccc2ccn(CCN3CCCCC3)c2c1)c1cccs1 | – | 8 | 43 | – | –
3 | CN1CCCC(n2ccc3ccc(NC(=N)c4cccs4)cc32)CC1 (stereo not drawn) | 37.7 µM | – | – | – | –
4 | N/C(=N\c1ccc2ccn(CCCN3CCOCC3)c2c1)c1ccoc1 | – | 19 | – | – | –
5 | CCN(CC)CCCn1ccc2ccc(/N=C(\N)c3cccs3)cc21 | – | 68 | – | – | –
6 | CN1CCCC(n2ccc3ccc(NC(=N)c4ccco4)cc32)CC1 (stereo not drawn) | 30.6 µM | 59 | 2 | 1.2 µM | IC50 (Nitric oxide synthase 1): 0.52 µM
7 | N/C(=N\c1ccc2ccn(CCCN3CCOCC3)c2c1)c1ccsc1 | – | 12.1 | 50 | – | –
8 | N=C(Nc1ccc2ccn(CCCN3CCOCC3)c2c1)c1ccoc1 | – | – | – | > 100 µM | –
9 | CN(C)CCn1ccc2ccc(N=C(N)c3cccs3)cc21 | – | – | – | 60 µM | –
10 | N=C(Nc1ccc2ccn(CCCN3CCCC3)c2c1)c1cccs1 | 11.2 µM | – | – | – | IC50 (Nitric oxide synthase 1): 0.45 µM
11 | CN(C)CCCCn1ccc2ccc(NC(=N)c3cccs3)cc21 | 2.53 µM | – | – | 66 µM | IC50 (Nitric oxide synthase 1): 0.26 µM
12 | CN1CCCC1CCn1ccc2ccc(NC(=N)c3cccs3)cc21 (racemic) | 19 µM | – | – | 68 µM | IC50 (Nitric oxide synthase 1): 0.22 µM
13 | CN1CCCC1CCn1ccc2ccc(/N=C(\N)c3cccs3)cc21 (racemic) | – | 86 | 309 | – | –
14 | N/C(=N\c1ccc2ccn(CCCCn3ccnc3)c2c1)c1cccs1 | – | 19 | – | – | –
15 | CCN(CC)CCCn1ccc2ccc(NC(=N)c3cccs3)cc21 | – | – | – | – | IC50 (Nitric oxide synthase 1): 0.15 µM
16 | CN1CCC[C@@H]1CCn1ccc2ccc(/N=C(\N)c3cccs3)cc21 | – | 50 | 225 | 72 µM | Activity (Rattus norvegicus [3]): Active; Activity (Rattus norvegicus [4]): Active
17 | N=C(Nc1ccc2ccn(CCCN3CCOCC3)c2c1)c1ccsc1 | – | – | – | 70 µM | –
18 | CN1CCCC(n2ccc3ccc(/N=C(\N)c4cccs4)cc32)CC1 (stereo not drawn) | – | 43 | – | – | –
19 | N/C(=N\c1ccc2ccn(CCCN3CCOCC3)c2c1)c1ccco1 | – | 14 | 15 | – | –
20 | CN(C)CCCCn1ccc2ccc(/N=C(\N)c3cccs3)cc21 | – | 10 | 254 | – | –
21 | CN1CCC[C@H]1CCn1ccc2ccc(/N=C(\N)c3cccs3)cc21 | – | 120 | 360 | 72 µM | –
22 | N=C(Nc1ccc2ccn(CCN3CCCCC3)c2c1)c1cccs1 | – | – | – | 21 µM | –
23 | CNCCCn1ccc2ccc(/N=C(\N)c3cccs3)cc21 | – | 6 | – | – | –
24 | N=C(Nc1ccc2ccn(CCCN3CCOCC3)c2c1)c1ccco1 | – | – | – | 36 µM | –
25 | N=C(Nc1ccc2ccn(CCCN3CCOCC3)c2c1)c1cccs1 | 28.3 µM | – | – | 82 µM | IC50 (Nitric oxide synthase 1): 0.7 µM
26 | N/C(=N\c1ccc2ccn(CCCN3CCCC3)c2c1)c1cccs1 | – | 25 | – | – | –
27 | N=C(Nc1ccc2ccn(CCCCn3ccnc3)c2c1)c1cccs1 | 23 µM | – | – | > 100 µM | –
28 | CN(C)CCCn1ccc2ccc(NC(=N)c3cccs3)cc21 | 23.3 µM | – | – | – | –
29 | N/C(=N\c1ccc2ccn(CCCN3CCOCC3)c2c1)c1cccs1 | – | 40 | 117 | – | –
